Measurements taken from article PMC8763936 (Investigational New Drugs, 2021).
Read-outs that look alike come from different tables or passages of the source.

What was measured:
CYP3A4/5 = assay: Effect of CYP-selective inhibitors on metabolism of entrectinib by pooled human liver microsomes; assay type: in vitro ADME
[1] = Study 2: midazolam pharmacokinetics alone or with single and multiple dose entrectinib
From the text: Following completion of this part of the study, subjects could continue in an expanded access portion of the study which is not discussed here.

clinical = conditions: human, oral
CYP2D6 = CYP2D6 (Homo sapiens, UniProt P10635); assay: Effect of CYP-selective inhibitors on metabolism of entrectinib by pooled human liver microsomes; conditions: inhibitor 1 µM, 1 µM entrectinib
Chain of CYP2D6 (P10635 whole entry): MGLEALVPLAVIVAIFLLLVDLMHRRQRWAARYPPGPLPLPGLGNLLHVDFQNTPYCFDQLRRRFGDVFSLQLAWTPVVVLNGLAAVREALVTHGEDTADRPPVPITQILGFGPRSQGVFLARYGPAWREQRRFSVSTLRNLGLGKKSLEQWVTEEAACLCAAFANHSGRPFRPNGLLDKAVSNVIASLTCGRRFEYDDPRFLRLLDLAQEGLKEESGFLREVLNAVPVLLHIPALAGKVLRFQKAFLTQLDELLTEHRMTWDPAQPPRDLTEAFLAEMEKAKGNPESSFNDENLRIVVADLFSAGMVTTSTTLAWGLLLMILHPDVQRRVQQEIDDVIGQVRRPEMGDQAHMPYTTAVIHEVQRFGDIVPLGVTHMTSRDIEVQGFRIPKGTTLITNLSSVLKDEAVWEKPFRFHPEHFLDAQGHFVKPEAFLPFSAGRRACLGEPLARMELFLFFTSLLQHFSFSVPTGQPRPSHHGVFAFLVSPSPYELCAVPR

[2] = Midazolam with multiple dose entrectinib, geometric mean (geometric CV)
[3] = Midazolam with multiple dose entrectinib, median (minimum, maximum)
[4] = Midazolam with single dose entrectinib, geometric mean (geometric CV)
[5] = Effect of Multiple Dose Entrectinib
[6] = Effect of Single Dose Entrectinib
[7] = Midazolam alone, geometric mean (geometric CV)
[8] = Midazolam with multiple dose entrectinib 600 mg/day, geometric mean (geometric CV)
[9] = Midazolam with single dose entrectinib 600 mg, geometric mean (geometric CV)
[10] = Digoxin alone, geometric mean (geometric CV)
[11] = digoxin with entrectinib vs alone
[12] = single dose entrectinib 600 mg vs digoxin alone

In the case of `CC(=O)N1CCN(c2ccc(OCC3COC(Cn4ccnc4)(c4ccc(Cl)cc4Cl)O3)cc2)CC1` (stereo not drawn) [Ketoconazole], the “inhibition of entrectinib metabolism depending on the metabolite formed” value (CYP3A4/5; human liver microsomes) is reported as 50–80%, the inhibition at 1 µM (CYP3A4/5; human, pooled human liver microsomes, probe entrectinib (metabolism to M5)) is reported as 82 ± 3% and the “Effect on Formation of other Entrectinib Metabolites” value (CYP3A4/5; inhibitor 1 µM, 1 µM entrectinib, pooled human liver microsomes) is reported as “+ + + (> 50% inhibition of multiple metabolites)”.

With `Cc1ncc2n1-c1ccc(Cl)cc1C(c1ccccc1F)=NC2` [Midazolam] the t1/2 [1, 2] was 6.4 (68%) h, the Tmax [1, 3] was 0.50 (0, 1.05) h and the t1/2 [1, 4] was 5.33 (44%) h. The half-life ([1]; human, plasma, oral) was 8.13 h, the Cmax ([1]; human, plasma, oral, 7.5 mg) was 19 nM and the Tmax ([1]; human, plasma, oral, 7.5 mg) was 0.49 h. For the same compound, the half-life ([1]; human, plasma, oral, 7.5 mg) was 5.2 h, the AUC(0-inf) ([1]; human, plasma, oral, 600 mg) was 0.0437 µM·h and the Cmax ([1]; human, plasma, oral, 600 mg) was 12.9 nM. For the same compound, the “mean t1/2” value ([1]; midazolam with a single dose of entrectinib) was 5.73 h.

In the case of `OCc1ncc2n1-c1ccc(Cl)cc1C(c1ccccc1F)=NC2` [1’-hydroxymidazolam], the “Ratio of adjusted geometric means (90% Confidence Intervals), AUCinf” value (“Ratio … (90% Confidence Intervals), AUCinf” for short) [1, 5] is reported as 0.89 (0.70, 1.12), the “Ratio of adjusted geometric means (90% Confidence Intervals), Cmax” value (shortened to “Ratio … (90% Confidence Intervals), Cmax”) [1, 5] is reported as 0.49 (0.36, 0.67) and the “Ratio … (90% Confidence Intervals), AUCinf” value [1, 6] is reported as 0.96 (0.83, 1.10). The “Ratio … (90% Confidence Intervals), Cmax” value [1, 6] was 0.62 (0.50, 0.76), the Cmax [1, 7] was 6.57 nM and the t1/2 [1, 7] was 3.71 (81%) h. The Tmax ([1]; Midazolam alone, median (minimum, maximum)) was 0.5 (0.25, 1.00) h, the AUCinf ([1]; Midazolam alone, single 7.5 mg midazolam dose (title), subjects with advanced solid tumors, geometric mean (geometric CV)) was 14.9 (60%) nM•h and the AUCinf [1, 8] was 14.0 (42%) nM•h. The Cmax [1, 8] was 3.51 nM, the t1/2 [1, 2] was 5.37 (75%) h and the Tmax [1, 3] was 0.75 (0.5, 5.97) h. The AUCinf [1, 9] was 14.4 (52%) nM•h, the Cmax [1, 9] was 4.21 nM and the t1/2 [1, 4] was 4.56 (49%) h. For the same compound, the Tmax ([1]; Midazolam with single dose entrectinib, median (minimum, maximum)) was 1.0 (0.48, 23.6) h, the “metabolic ratio of metabolite to parent for AUCinf and Cmax, point estimates” value ([1]; coadministration with multiple-dose entrectinib vs midazolam alone) was 59% to 64% and the “decrease of 1’-hydroxymidazolam metabolite-to-parent ratio” value ([1]; multiple oral doses of entrectinib at steady-state) was 41%.

For `C[C@H]1O[C@@H](O[C@H]2[C@@H](O)C[C@H](O[C@H]3[C@@H](O)C[C@H](O[C@H]4CC[C@@]5(C)[C@H](CC[C@@H]6[C@@H]5C[C@@H](O)[C@]5(C)[C@@H](C7=CC(=O)OC7)CC[C@]65O)C4)O[C@@H]3C)O[C@@H]2C)C[C@H](O)[C@@H]1O` [Digoxin], the Cmax [10] was 1.97 nM, the “fe, percent of dose excreted unchanged in urine” value [10] was 40.2 (13%) and the t1/2 [10] was 35.9 (15%) h. The “fe, percent of dose excreted unchanged in urine” value (Digoxin alone, geometric mean (geometric CV), listed as digoxin) was 40%, the Tmax (Digoxin alone, median (minimum, maximum)) was 1.0 (0.5, 1.0) h and the CLR (Digoxin alone, renal clearance, geometric mean (geometric CV)) was 130 (16%) mL/min. For the same compound, the “fe, percent of dose excreted unchanged in urine” value (Digoxin with single 600 mg entrectinib, geometric mean (geometric CV)) was 44.0 (14%), the “fe, percent of dose excreted unchanged in urine” value (Digoxin with single 600 mg entrectinib, geometric mean (geometric CV), listed as digoxin) was 44% and the “Ratio … (90% Confidence Intervals), AUCinf” value [11] was 1.18 (1.06, 1.32). For the same compound, the “Ratio of adjusted geometric means (90% Confidence Intervals), CLR” value [11] was 0.95 (0.91, 0.98), the “Ratio … (90% Confidence Intervals), Cmax” value [11] was 1.28 (0.98, 1.67) and the “geometric mean ratio of CLR with and without entrectinib” value (exploratory analysis, 90% CI: 90.9%, 98.4%) was 94.6%. For the same compound, the Tmax later (single 600 mg dose of entrectinib coadministered with digoxin) was “approximately 1 h”, the “increase of AUCinf” value [12] was 18% and the “increase of Cmax” value [12] was 28%. The “increase in digoxin exposure” value (single oral dose of entrectinib coadministered) was 20–30%, the AUC(0-inf) (clinical; plasma, 75 mg) was 0.0342 µM·h and the AUC(0-inf) (clinical; plasma, 600 mg) was 0.0404 µM·h. The Cmax (clinical; plasma, 600 mg) was 2.52 nM, the Tmax (clinical; plasma, 600 mg) was 2 h and the half-life (clinical; plasma, 600 mg) was 38.4 h. The CL renal (clinical; urine, 600 mg) was 123 mL/min.

For `C=C[C@H]1C[N@@]2CC[C@H]1C[C@@H]2[C@@H](O)c1ccnc2ccc(OC)cc12` [Quinidine], the “Effect on Formation of other Entrectinib Metabolites” value (CYP2D6) was “+ (> 20% inhibition of 1 metabolite)”.
